Source: paper PMC4350845, “Polyphosphatase PPN1 of Saccharomyces cerevisiae: Switching of Exopolyphosphatase and Endopolyphosphatase Activities” (PLoS ONE, 2015)

Target: T1, polyphosphatase PPN1 (Saccharomyces cerevisiae, UniProt Q04119)
T1 construct: recombinant, overexpressed in S. cerevisiae CRN/pMB1_PPN1 Sc and purified; proteolytically matured form of ~33 kDa on SDS-PAGE (precursor predicted 78 kDa); no tag mentioned
T1 sequence (Q04119 84-384): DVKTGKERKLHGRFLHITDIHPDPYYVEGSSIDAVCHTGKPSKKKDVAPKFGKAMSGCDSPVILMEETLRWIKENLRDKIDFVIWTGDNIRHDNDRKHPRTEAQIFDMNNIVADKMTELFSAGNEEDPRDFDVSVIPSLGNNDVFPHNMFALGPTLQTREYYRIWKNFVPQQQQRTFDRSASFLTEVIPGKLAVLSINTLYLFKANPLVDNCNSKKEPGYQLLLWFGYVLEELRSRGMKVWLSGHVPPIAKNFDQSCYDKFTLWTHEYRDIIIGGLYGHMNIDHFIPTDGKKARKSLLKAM
Test: inhibition of exopolyphosphatase activity (Pi release from PolyP208)
Format: biochemical
Conditions: inhibitor; PolyP208 2.5 mM as Pi, 0.1 mM CoSO4, 200 mM NH4Cl, pH 7.2, 30 C

| % of control activity at 2.0 mM | Compound |
| --- | --- |
| PPi and PolyP3 inhibited Pi release | O=P(O)(O)OP(=O)(O)OP(=O)(O)O [PolyP3] |
| PPi and PolyP3 inhibited Pi release | O=P(O)(O)OP(=O)(O)O [PPi] |
